Source: publication PMC9130746, “In Vitro Activity of Peptide Antibiotics in Combination With Other Antimicrobials on Extensively Drug-Resistant Acinetobacter baumannii in the Planktonic and Biofilm Cell” (Frontiers in Pharmacology, 2022)
≈ marks a conversion by molar mass, not a printed value. Read-outs that look alike come from different tables or passages of the source. Bridge positions count the residues as written; N and C are the ends. Square brackets hold non-standard residues; d marks the D form. Peptide text beside a SMILES is read from it. * marks the point of attachment. Ileψ(thiazoline)Cys = CC[C@H](C)[C@H](N)C1=N[C@H](C(=O)*)CS1; dOrn = NCCC[C@@H](N)C(=O)O

Assays:
[1] = system: extensively drug-resistant A. baumannii clinical isolates (planktonic cell); assay: microbe, parasite or virus in culture; assay type: cell-based, Acinetobacter baumannii
Excerpt: (§1) Nine XDRAB strains were isolated from clinical specimens such as the septum, urine, or respiratory lavage fluid of patients from the respiratory intensive care unit, intensive care unit, the cardiothoracic surgery department, and the neurology department at the First Affiliated Hospital of Chengdu Medical College during the period from 2018 to 2020 (Chengdu, Sichuan, China). In addition, A. baumannii ATCC 19606, Staphylococcus aureus ATCC 29213, and Escherichia coli ATCC 25922 were used as quality control strains in antimicrobial susceptibility testing (AST) and obtained from the American Type Culture Collection (ATCC, Manassas, VA, United States).
The minimum inhibitory concentrations (MICs) were determined by the broth microdilution method for the antibacterial agents and peptide antibiotics for A. baumannii based on the guidelines provided by the Clinical and Laboratory Standards Institute (CLSI) ([Humphries et al., 2021]). Briefly, bacterial cells were inoculated in Luria–Bertani agar medium at 37°C for 16–20 h, and then resuspended in saline (0.9% sodium chloride) to adjust the bacterial content to reach the 0.5 McFarland turbidity standard, followed by a 20-fold dilution. Antimicrobial solutions were prepared according to the CLSI ([Humphries et al., 2021]). Finally, 180 μl CAMHB, 10 µl corresponding antimicrobials, and 10 µl bacterial resuspension were added into 96-well plate (NEST TC, 701001, www.cell-nest.com). The value of OD600 was measured after incubating at 37°C for 16–20 h.

[2] = system: extensively drug-resistant A. baumannii clinical isolates (biofilm cell); assay type: cell-based, Acinetobacter baumannii
Excerpt: as §1
The minimum biofilm inhibitory concentrations (MBICs) were detected using a previous study protocol ([Kart et al., 2021]) for the antibacterial agents and peptide antibiotics for A. baumannii in the biofilm cell. First, bacterial cells were inoculated in Luria–Bertani agar medium at 37°C for 16–20 h. Next, the bacterial monoclones were resuspended in saline (0.9% sodium chloride) to adjust the bacterial content to reach the 0.5 McFarland turbidity standard. Then, 190 µl TSB and 10 µl bacterial resuspension were mixed in a 96-well plate. After incubating at 37°C for 24 h, the medium was aspirated, and 200 µl PBS was added to wash three times. Finally, 190 μl MH broth medium and 10 µl corresponding antibiotics were added into 96-well plate (NEST TC, 701001, www.cell-nest.com). The optical density was measured at OD600 after incubating for 16–20 h at 37°C.

[3] = Acinetobacter baumannii, isolate AB1, planktonic, broth microdilution, CAMHB, 37°C 16–20 h, OD600, read-out: MIC
[4] = Acinetobacter baumannii, isolate AB2, planktonic, broth microdilution, CAMHB, 37°C 16–20 h, OD600, read-out: MIC
[5] = Acinetobacter baumannii, isolate AB3, planktonic, broth microdilution, CAMHB, 37°C 16–20 h, OD600, read-out: MIC
[6] = Acinetobacter baumannii, isolate AB4, planktonic, broth microdilution, CAMHB, 37°C 16–20 h, OD600, read-out: MIC
[7] = Acinetobacter baumannii, isolate AB5, planktonic, broth microdilution, CAMHB, 37°C 16–20 h, OD600, read-out: MIC
[8] = Acinetobacter baumannii, isolate AB6, planktonic, broth microdilution, CAMHB, 37°C 16–20 h, OD600, read-out: MIC
[9] = Acinetobacter baumannii, isolate AB7, planktonic, broth microdilution, CAMHB, 37°C 16–20 h, OD600, read-out: MIC
[10] = Acinetobacter baumannii, isolate AB8, planktonic, broth microdilution, CAMHB, 37°C 16–20 h, OD600, read-out: MIC
[11] = Acinetobacter baumannii, isolate AB9, planktonic, broth microdilution, CAMHB, 37°C 16–20 h, OD600, read-out: MIC
[12] = isolate AB1, planktonic, broth microdilution, CAMHB, 37°C 16–20 h, OD600
[13] = isolate AB2, planktonic, broth microdilution, CAMHB, 37°C 16–20 h, OD600
[14] = isolate AB3, planktonic, broth microdilution, CAMHB, 37°C 16–20 h, OD600
[15] = isolate AB4, planktonic, broth microdilution, CAMHB, 37°C 16–20 h, OD600
[16] = isolate AB5, planktonic, broth microdilution, CAMHB, 37°C 16–20 h, OD600
[17] = isolate AB6, planktonic, broth microdilution, CAMHB, 37°C 16–20 h, OD600
[18] = isolate AB7, planktonic, broth microdilution, CAMHB, 37°C 16–20 h, OD600
[19] = isolate AB8, planktonic, broth microdilution, CAMHB, 37°C 16–20 h, OD600
[20] = isolate AB9, planktonic, broth microdilution, CAMHB, 37°C 16–20 h, OD600

Structure (SMILES)	MIC [1, 3]	MIC [1, 4]	MIC [1, 5]	MIC [1, 6]	MIC [1, 7]	MIC [1, 8]	MIC [1, 9]	MIC [1, 10]	MIC [1, 11]	MIC [1, 12]	MIC [1, 13]	MIC [1, 14]	MIC [1, 15]	MIC [1, 16]	MIC [1, 17]	MIC [1, 18]	MIC [1, 19]	also measured
C[C@@H](O)[C@H]1C(=O)N2C(C(=O)O)=C(S[C@@H]3CN[C@H](C(=O)N(C)C)C3)[C@H](C)[C@H]12 [Meropenem, meropenem]	32 µg/mL (≈ 83.4 µM)	32 µg/mL (≈ 83.4 µM)	32 µg/mL (≈ 83.4 µM)	32 µg/mL (≈ 83.4 µM)	32 µg/mL (≈ 83.4 µM)	32 µg/mL (≈ 83.4 µM)	32 µg/mL (≈ 83.4 µM)	32 µg/mL (≈ 83.4 µM)	32 µg/mL (≈ 83.4 µM)									
CN(C)c1ccc(O)c2c1C[C@H]1C[C@H]3[C@H](N(C)C)C(O)=C(C(N)=O)C(=O)[C@@]3(O)C(O)=C1C2=O [Minocycline, minocycline]	16 µg/mL (≈ 35 µM)	16 µg/mL (≈ 35 µM)	16 µg/mL (≈ 35 µM)	16 µg/mL (≈ 35 µM)	16 µg/mL (≈ 35 µM)	16 µg/mL (≈ 35 µM)	16 µg/mL (≈ 35 µM)	16 µg/mL (≈ 35 µM)	16 µg/mL (≈ 35 µM)									
CC(C)(O/N=C(\C(=O)N[C@@H]1C(=O)N2C(C(=O)[O-])=C(C[n+]3ccccc3)CS[C@H]12)c1csc(N)n1)C(=O)O [Ceftazidime, ceftazidime]										256 µg/mL (≈ 468 µM)	256 µg/mL (≈ 468 µM)	256 µg/mL (≈ 468 µM)	256 µg/mL (≈ 468 µM)	256 µg/mL (≈ 468 µM)	256 µg/mL (≈ 468 µM)	256 µg/mL (≈ 468 µM)	256 µg/mL (≈ 468 µM)	MIC ([1]; Acinetobacter baumannii): 256 µg/mL (≈ 468 µM)
CC[C@H](C)[C@H](N)C1=N[C@H](C(=O)N[C@@H](CC(C)C)C(=O)N[C@H](CCC(=O)O)C(=O)N[C@H](C(=O)N[C@H]2CCCCNC(=O)[C@H](CC(N)=O)NC(=O)[C@@H](CC(=O)O)NC(=O)[C@H](Cc3cnc[nH]3)NC(=O)[C@@H](Cc3ccccc3)NC(=O)[C@H]([C@@H](C)CC)NC(=O)[C@@H](CCCN)NC2=O)[C@@H](C)CC)CS1 [Bacitracin, bacitracin] ({Ileψ(thiazoline)Cys}-L[dE]IK[dOrn]I[dF]H[dD]N; lactam 4-C (inferred); N-terminus assumed)												128 µg/mL (≈ 90 µM)	128 µg/mL (≈ 90 µM)	128 µg/mL (≈ 90 µM)	128 µg/mL (≈ 90 µM)		128 µg/mL (≈ 90 µM)	MIC [1]: 64 µg/mL (≈ 45 µM); MIC [1, 20]: 128 µg/mL (≈ 90 µM); MBIC ([2]; extensively drug-resistant clinical isolates (biofilm cell, 24 h)): 256 µg/mL
C[C@@H](O)[C@H]1C(=O)N2C(C(=O)O)=C(SCCN=CN)C[C@H]12 [Imipenem, imipenem]	64 µg/mL (≈ 214 µM)	64 µg/mL (≈ 214 µM)	64 µg/mL (≈ 214 µM)	64 µg/mL (≈ 214 µM)	64 µg/mL (≈ 214 µM)	64 µg/mL (≈ 214 µM)	64 µg/mL (≈ 214 µM)	64 µg/mL (≈ 214 µM)	64 µg/mL (≈ 214 µM)									
O=C(N[C@H](CO)[C@H](O)c1ccc([N+](=O)[O-])cc1)C(Cl)Cl [Chloramphenicol, chloramphenicol]	32 µg/mL (≈ 99 µM)	32 µg/mL (≈ 99 µM)	32 µg/mL (≈ 99 µM)	32 µg/mL (≈ 99 µM)	32 µg/mL (≈ 99 µM)	32 µg/mL (≈ 99 µM)	32 µg/mL (≈ 99 µM)	32 µg/mL (≈ 99 µM)	32 µg/mL (≈ 99 µM)									
CO/N=C(\C(=O)N[C@@H]1C(=O)N2C(C(=O)O)=C(COC(C)=O)CS[C@H]12)c1csc(N)n1 [Cefotaxime, cefotaxime]										256 µg/mL (≈ 562 µM)	256 µg/mL (≈ 562 µM)	256 µg/mL (≈ 562 µM)	256 µg/mL (≈ 562 µM)	256 µg/mL (≈ 562 µM)	256 µg/mL (≈ 562 µM)	256 µg/mL (≈ 562 µM)	256 µg/mL (≈ 562 µM)	MIC ([1]; Acinetobacter baumannii): 256 µg/mL (≈ 562 µM)
CN[C@H](CC(C)C)C(=O)N[C@H]1C(=O)N[C@@H](CC(N)=O)C(=O)N[C@H]2C(=O)N[C@H]3C(=O)N[C@H](C(=O)N[C@H](C(=O)O)c4cc(O)cc(O)c4-c4cc3ccc4O)[C@H](O)c3ccc(c(Cl)c3)Oc3cc2cc(c3O[C@@H]2O[C@H](CO)[C@@H](O)[C@H](O)[C@H]2O[C@H]2C[C@](C)(N)[C@H](O)[C@H](C)O2)Oc2ccc(cc2Cl)[C@H]1O [Vancomycin, vancomycin]										64 µg/mL (≈ 44.2 µM)	64 µg/mL (≈ 44.2 µM)	128 µg/mL (≈ 88.3 µM)	64 µg/mL (≈ 44.2 µM)	128 µg/mL (≈ 88.3 µM)	128 µg/mL (≈ 88.3 µM)	128 µg/mL (≈ 88.3 µM)	64 µg/mL (≈ 44.2 µM)	MIC [1, 20]: 128 µg/mL (≈ 88.3 µM); MBIC ([2]; isolate AB1, 24 h biofilm in TSB, then MH broth with drug 16–20 h 37°C, OD600): 256 µg/mL; MBIC ([2]; isolate AB2, 24 h biofilm in TSB, then MH broth with drug 16–20 h 37°C, OD600): 128 µg/mL; MBIC ([2]; isolate AB3, 24 h biofilm in TSB, then MH broth with drug 16–20 h 37°C, OD600): 128 µg/mL; MBIC ([2]; isolate AB4, 24 h biofilm in TSB, then MH broth with drug 16–20 h 37°C, OD600): 128 µg/mL; MBIC ([2]; isolate AB5, 24 h biofilm in TSB, then MH broth with drug 16–20 h 37°C, OD600): 256 µg/mL; MBIC ([2]; isolate AB6, 24 h biofilm in TSB, then MH broth with drug 16–20 h 37°C, OD600): 256 µg/mL; MBIC ([2]; isolate AB7, 24 h biofilm in TSB, then MH broth with drug 16–20 h 37°C, OD600): 128 µg/mL; MBIC ([2]; isolate AB8, 24 h biofilm in TSB, then MH broth with drug 16–20 h 37°C, OD600): 128 µg/mL; MBIC ([2]; isolate AB9, 24 h biofilm in TSB, then MH broth with drug 16–20 h 37°C, OD600): 128 µg/mL
CNC(C)C1CCC(N)C(OC2C(N)CC(N)C(OC3OCC(C)(O)C(NC)C3O)C2O)O1 (centres unmarked) [Gentamicin, gentamicin]										>1024 µg/mL	>1024 µg/mL	>1024 µg/mL	>1024 µg/mL	>1024 µg/mL	>1024 µg/mL	>1024 µg/mL	>1024 µg/mL	MIC ([1]; Acinetobacter baumannii): > 1020 µg/mL
CCN1CCN(C(=O)N[C@@H](C(=O)N[C@@H]2C(=O)N3[C@@H]2SC(C)(C)[C@@H]3C(=O)O)c2ccccc2)C(=O)C1=O [Piperacillin, piperacillin]	> 1020 µg/mL	> 1020 µg/mL	> 1020 µg/mL	> 1020 µg/mL	> 1020 µg/mL	> 1020 µg/mL	> 1020 µg/mL	> 1020 µg/mL	> 1020 µg/mL									
CN(C)[C@@H]1C(O)=C(C(N)=O)C(=O)[C@@]2(O)C(O)=C3C(=O)c4c(O)cccc4[C@@](C)(O)[C@H]3C[C@@H]12 [Tetracycline, tetracycline]	> 1020 µg/mL	> 1020 µg/mL	> 1020 µg/mL	> 1020 µg/mL	> 1020 µg/mL	> 1020 µg/mL	> 1020 µg/mL	> 1020 µg/mL	> 1020 µg/mL									
C[C@H]1COc2c(N3CCN(C)CC3)c(F)cc3c(=O)c(C(=O)O)cn1c23 [Levofloxacin, levofloxacin]	16 µg/mL (≈ 44.3 µM)	16 µg/mL (≈ 44.3 µM)	16 µg/mL (≈ 44.3 µM)	8 µg/mL (≈ 22.1 µM)	8 µg/mL (≈ 22.1 µM)	16 µg/mL (≈ 44.3 µM)	8 µg/mL (≈ 22.1 µM)	16 µg/mL (≈ 44.3 µM)	16 µg/mL (≈ 44.3 µM)									
NCC[C@H](O)C(=O)N[C@@H]1C[C@H](N)[C@@H](O[C@H]2O[C@H](CN)[C@@H](O)[C@H](O)[C@H]2O)[C@H](O)[C@H]1O[C@H]1O[C@H](CO)[C@@H](O)[C@H](N)[C@H]1O [Amikacin, amikacin]	> 1020 µg/mL	> 1020 µg/mL	> 1020 µg/mL	> 1020 µg/mL	> 1020 µg/mL	> 1020 µg/mL	> 1020 µg/mL	> 1020 µg/mL	> 1020 µg/mL									
